The text below walks through data of paper PMC6588697, “Lugdunin amplifies innate immune responses in the skin in synergy with host- and microbiota-derived factors” (Nature Communications, 2019).

Where “and” joins values, the source holds several entries; their conditions need not be identical. Equal values may be shown once.

The subject of assay [1] is HEK293 cells. The experiment in a line: CXCL8 release by HEK-control cells (LEGENDplex). The class given is cell-based, human. Particulars: lugdunin 2 µM, 5 h, two technical replicates, Fig 2a. As to the method: Fig. 2 Induction of chemokine (C-X-C motif) ligand 8/macrophage inflammatory protein-2 (CXCL8/MIP-2) by lugdunin is TLR2/MyD88-dependent. a HEK-control or HEK-TLR2 cells were treated with 2 μM lugdunin for 5 h and subsequently the CXCL8 concentration in the supernatant was analyzed by LEGENDplex^TM (BioLegend). Shown is one representative experiment of three independent experiments with two technical replicates ± s.e.m. b HEK-control or HEK-TLR2 cells were treated with increasing concentrations of lugdunin for 5 h and subsequently expression of CXCL8 was analyzed and normalized to actin. Shown is one representative experiment of three independent experiments with two technical replicates ± s.e.m. c Schematic overview of the mouse experiments: 6–8-week-old female C5BL/6 WT, MyD88-knockout (ko), or 5xTLR-ko mice were epicutaneously treated with 1.5 µg lugdunin or phosphate-buffered saline (PBS) as a control. […] Significant differences to control treatments were analyzed by an unpaired two-tailed t test (*P < 0.05; **P < 0.01; ***P < 0.001). f Representative MIP-2-stained paraffin-embedded mouse skin sections. […]
Supplementary Figure 2: CXCL8 controls and other cytokines in mouse skin 46 a: HEK-control cells or HEK -TLR2 cells were treated with 100 ng/mL Pam2Cys for 5 47 hours and subsequently the CXCL8 concentration in the supernatant was analyzed. […]

The subject of assay [2] is PBMCs. The experiment in a line: CXCL8 expression in PBMCs (qRT-PCR). The format is cell-based, human. As to conditions: 5 h, two technical replicates. As to the method: Quantitative reverse transcription-polymerase chain reaction (qRT-PCR) was performed in 10 µL reaction volume with SYBR^TM Green PCR Master Mix (Thermo Fisher) according to the manufacturer’s instructions using a LightCycler 96 (Roche Life Science). The initial denaturation step was at 95 °C for 5 min, followed by 40 cycles with 10 s each for the denaturation step at 95 °C, the annealing at individual temperature, and the elongation at 72 °C. Primer sequences and respective annealing temperatures are listed in Supplementary Table 1.
Human PBMCs were isolated from the peripheral blood of healthy donors upon obtaining informed consent by Ficoll-Histopaque (Biochrom) gradient centrifugation. Cells were washed once in PBS and adjusted to a cell number of 1 × 10^6 mL^−1 in RPMI-1640 medium (Gibco/Life Technologies) containing 10% FBS (Biochrom/Merck Millipore). […]
31 g+h+i: HNEpCs (b), HTEpCs (c) or PBMCs (d) were treated with increasing
32 concentrations of lugdunin (grey bars) or 100 ng/mL Pam2Cys or Pam3Cys (white
33 bars) as positive controls for 5 hours and subsequently expression of CXCL8 was
34 analyzed and normalized to actin. Black bar: medium control. Shown is one
35 representative experiment of three independent experiments with two technical
36 replicates +/-s.e.m. Significant differences to control treatments were analyzed by
37 ordinary one-way ANOVA followed by Dunnett’s multiple comparisons test (*P<0.05; […]

Consider Lugdunin, for which the “CXCL8 concentration in supernatant” value in assay [1] was 39.328 and 39.600. Further, the CXCL8 fold induction was 0.8179 and 0.8236 in assay [2] (lugdunin 0.5 µM, sheet Supp Fig 1h); 1.223 and 1.275 in assay [2] (lugdunin 1 µM); 2.085 and 1.84 in assay [2] (lugdunin 2 µM); 2.121 and 2.305 in assay [2] (lugdunin 3 µM); 3.021 and 3.221 in assay [2] (lugdunin 5 µM); 3.494 and 3.593 in assay [2] (lugdunin 10 µM).
